Results taken from the supplement of paper PMC10307832.

Tests used:
Experiment in all cases: relative viability (nuclei count vs DMSO), 5 days (fraction); higher = more cells survive
[1] = compound: COc1cc2c(Oc3ccc4[nH]c(C)cc4c3F)ncnc2cc1OCCCN1CCCC1 [Cediranib] + O=C(c1cc(Cc2n[nH]c(=O)c3ccccc23)ccc1F)N1CCN(C(=O)C2CC2)CC1 [Olaparib] (partner 8 µM)
In short: (§1)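 One day after seeding in 1536-well plates, lung cancer cell lines were dosed by pin tool. Dosing was either single-drug or a fixed anchor-drug dose plus five library-drug doses (not always all listed) in √10 steps. After 5 days, nuclei were stained in one fix-and-stain step and counted on 4× images, and relative viability is the nuclei count of treated wells over that of vehicle wells, given as the median of duplicate plates.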

[2] = compound: COc1cc2c(Oc3ccc4[nH]c(C)cc4c3F)ncnc2cc1OCCCN1CCCC1 [Cediranib] + C[C@]1(O)C[C@@H](c2nc(-c3ccc4ccc(-c5ccccc5)nc4c3)c3c(N)nccn32)C1 [Linsitinib] (partner 1 µM)
In short: as §1

[3] = compound: COc1cc2c(Oc3ccc4[nH]c(C)cc4c3F)ncnc2cc1OCCCN1CCCC1 [Cediranib] + Nc1ncn([C@H]2C[C@H](O)[C@@H](CO)O2)c(=O)n1 [Decitabine] (partner 2 µM)
In short: as §1

[4] = compound: COc1cc2c(Oc3ccc4[nH]c(C)cc4c3F)ncnc2cc1OCCCN1CCCC1 [Cediranib] + CS(=O)(=O)CCNCc1ccc(-c2ccc3ncnc(Nc4ccc(OCc5cccc(F)c5)c(Cl)c4)c3c2)o1 [Lapatinib] (partner 2 µM)
In short: as §1

Cell Line	relative viability ([1]; first compound 0.04 µM)	relative viability ([1]; first compound 0.1265 µM)	relative viability ([1]; first compound 0.4 µM)	relative viability ([1]; first compound 1.265 µM)	relative viability ([1]; first compound 4 µM)	relative viability ([2]; first compound 0.04 µM)	relative viability ([2]; first compound 0.1265 µM)	relative viability ([2]; first compound 0.4 µM)	relative viability ([2]; first compound 1.265 µM)	relative viability ([2]; first compound 4 µM)	relative viability ([3]; first compound 0.04 µM)	relative viability ([3]; first compound 0.1265 µM)	relative viability ([3]; first compound 0.4 µM)	relative viability ([3]; first compound 1.265 µM)	relative viability ([3]; first compound 4 µM)	relative viability ([4]; first compound 0.04 µM)	relative viability ([4]; first compound 0.1265 µM)	relative viability ([4]; first compound 0.4 µM)	relative viability ([4]; first compound 1.265 µM)	relative viability ([4]; first compound 4 µM)
LK-2	0.67	0.334	0.681	0.802	0.733	0.944	0.492	0.651	0.548	0.51	0.287	0.231	0.396	0.269	0.273	1.01	0.728	0.842	0.952	0.732
LOU-NH91	0.972	0.936	0.88	0.908	0.86	0.905	1.2	0.915	0.969	0.759	0.787	0.831	0.81	0.792	0.8	0.818	0.788	0.807	0.676	0.761
LU99A	0.236	–	0.244	0.267	0.314	0.517	–	0.565	0.518	0.573	0.936	–	0.844	0.863	0.936	1.14	–	0.936	0.877	1.06
LXF-289	1.09	–	1.03	1	1.15	0.986	0.903	0.93	0.942	0.902	0.397	–	0.371	0.385	0.411	0.988	0.816	0.852	0.958	0.846
NCI-H23	0.373	0.326	0.277	0.323	0.342	0.698	–	0.542	0.442	0.682	0.327	0.355	0.31	0.312	0.339	0.977	–	1.21	0.881	1.38
NCI-H322M	0.857	0.757	0.618	0.783	0.762	1.01	0.997	0.879	0.856	1.09	0.606	0.837	0.715	0.688	0.654	0.578	0.915	0.562	0.617	0.52
NCI-H358	0.659	0.66	0.503	0.64	0.666	0.919	0.745	0.681	0.717	0.899	0.214	0.256	0.215	0.186	0.213	0.478	0.666	0.454	0.419	0.466
NCI-H460	0.53	0.411	0.403	0.424	0.362	0.86	0.757	0.702	0.727	0.676	0.505	0.47	0.485	0.479	0.587	1.05	1.01	0.905	1	0.639
NCI-H520	0.365	0.353	0.355	0.298	0.3	1.08	–	0.809	0.806	0.908	0.572	0.588	0.502	0.488	0.459	0.977	–	0.605	0.759	0.785
NCI-H596	0.798	0.8	0.721	0.99	0.731	1.16	1.07	1.11	1.05	1.09	1.04	1.1	0.978	0.918	1.18	1.19	1.29	1.06	0.868	1.06
NCI-H647	0.772	0.652	0.501	0.551	0.437	1.34	1.13	1.15	1.11	1.41	0.415	0.414	0.448	0.349	0.405	1.46	1.19	1.08	1.02	1.19
NCI-H650	0.331	0.282	0.423	0.405	0.583	0.792	0.681	0.807	0.706	0.964	0.315	0.271	0.302	0.302	0.348	0.956	0.444	0.913	0.8	0.938
NCI-H661	0.763	0.785	0.713	0.703	0.817	0.509	0.733	0.596	0.527	0.743	0.663	0.598	0.529	0.531	0.588	0.552	0.738	0.403	0.494	0.544
NCI-H727	0.656	0.679	0.684	0.728	0.73	0.293	0.267	0.33	0.372	0.279	0.818	0.692	0.793	0.894	0.909	0.774	0.483	0.733	0.919	0.732
NCI-H838	0.786	0.764	0.734	0.722	0.756	1.06	1.03	0.956	0.984	1.03	0.497	0.376	0.432	0.383	0.506	1.02	0.796	0.914	0.737	1.11
NCI-H1355	0.689	0.727	0.723	0.787	0.784	0.8	0.866	0.781	0.813	0.96	0.331	0.359	0.353	0.367	0.429	1.01	0.693	0.955	0.798	1.03
NCI-H1395	0.472	0.448	0.474	0.541	0.42	0.937	–	1.11	1.16	0.936	0.717	0.769	0.675	0.712	0.77	0.961	–	1.35	0.97	1.01
